The record followed here is US12528777B2, “Quinazolinones derivatives for treatment of non-alcoholic fatty liver disease, preparation and use thereof” (Council of Scientific and Industrial Research, priority 2020, dated 2026).

A short description of one data set: Plasma stability assay. In kind it is in vitro ADME, human. The note with it: for Mean % remaining at 2 hrs in human Plasma: 1 μM, 37° C., 120 min, LC-MS/MS; for Plasma stability: human plasma, after 2 hours, with respect to Propantheline. How it is done:
1 mM Stock of test compound was prepared from 10 mM initial stock solution of compounds by diluting 10 μL of 10 mM stock with 90 μL of DMSO. Then 10 μL of 1 mM stock was diluted with 90 µL of DMSO to give 100 μM concentration. The frozen plasma was thawed at room temperature and centrifuged at 1400 rpm at 4° C., for 15 minutes. Approximately […] of the clear supernatant fraction was transferred to a separate tube and was used for the assay. Final working stock of 1 μM was prepared by diluting 3 μL of 100 μM with 297 μL of plasma. Plasma containing the test compound was incubated for 120 min at 37° C. in shaker with 500 rpm. 50 μL of aliquot of sample at 0, 15, 30, 60 and 120 minutes were precipitated with 150 μL of acetonitrile containing internal standard and centrifuged at 4000 rpm at 4° C. for 20 minutes. 120 μL of supernatant was diluted with 120 μL of water and analyzed by LC-MS/MS.

Data set [1] can be described thus: Lipophilicity assay (octanol/buffer). The note with it: for logD / LogD @ pH 7.4: n-octanol / 10 mM sodium phosphate buffer pH 7.4, LC-UV; for Lipophilicity class from Log D: pH 7.4. Format: physicochemical. How it is done: 1.56 g NaH2PO4·2H2O was dissolved in 0.5 L water in a 1 L beaker. After adjusting pH to 7.4 using NaOH solution, the volume was made up to 1 L. Equal volumes of sodium phosphate buffer (10 mM, pH 7.4) and n-octanol were added to a separation funnel and mixed thoroughly by shaking and inverting the funnel several times. The two layers were allowed to separate for overnight and then dispensed in two separate glass bottles. 10 mM stock solution was prepared in 100% DMSO and stored at 4° C. 495 μL of organic phase (1-octanol) was added to each well of a 2 mL deep well plate, followed by 495 μL of buffer and 10 μL of test compound was added. The plate was incubated for 3 hr at room temperature on a plate shaker at 500 rpm. After incubation, the samples were allowed to equilibrate for 20 min and then centrifuged at 4000 rpm for 30 min for complete phase separation and analysed by LC-UV.
Log D=Log (area of octanol/area of buffer)

In another data set the test system is HepG2 cells. Put plainly: Confocal microscopy: lipid droplets in oleate induced HepG2 cells. Format: cell-based. The conditions noted are these: for Reduction in Lipid Droplets: oleate induced HepG2 cells, score; for Number of lipid droplets: HepG2 cells, 250 μM oleate induction. Also on record: key to Reduction in Lipid Droplets: + = slight or in insignificant; ++ = Moderate; +++ and ++++ = active; +++ and ++++ = active; +++++ = very active. How it is done: To select the compounds capable of inhibiting the ubiquitination of ATGL by COP1 by targeting the VP motif, confocal microscopy was performed with the provided molecules. If the compound was effective in inhibiting the interaction, there would be a reduction in the number of fat droplets in the cells after treatment. […] With this rationale in mind, HepG2 cells were induced to accumulate lipid droplets after treatment with 250 µM of oleate and 10 μM of the specific compounds were added. The potential of the compounds to bring about a reduction in the number of fat droplets was then checked by comparison with oleate induced cells by counting number of droplets of approximately 20 cells from each treatment and calculating the average number of lipid droplets of each cell. The selected compounds were then subjected to dose dependent treatments and the ones which could maintain its potency to reduce fat droplets at lower doses were then selected for western blot analysis. The compound which could reduce the number of fat droplets in the cells are expected to raise the levels of ATGL since they are likely to deter COP1 from ubiquitinating ATGL. This increase will be visible only in the protein level and gene expression is likely to remain unchanged since ubiquitination is a […] modification. Thus, western blot was performed to check ATGL levels in the cells with the selected molecules.
HepG2 cells were plated in confocal dishes (SPL, Genetix Biotech Asia Pvt. Ltd.). The cells were allowed to adhere and divide for 16 hours. 10 μM for initial screening and 10 nM, 20 nM, 50 nM, 100 nM, 200 nM, 500 nM, 1 μM and 5 μM for dose dependent assays of the compounds 9 and 107 were dissolved in DMSO and added to the cells. 250 μM of oleate was used for induction. BSA (Sigma Aldrich) was used as a negative control. Post 24 hours of treatment, media was decanted from the cells and washed with 1×PBS solution to remove any remnant. 200 μl of staining solution containing 200 ng/ml BODIPY (Invitrogen) and 25 µg/ml HOECKST342 (Invitrogen) were added to the cells and incubated at 37° C. for 30 minutes under dark conditions. Cells were washed 3 times with 1×PBS to remove excess stain. FLUOVIEW FV10i (Olympus) was used to visualise the cells.

The subject of the next data set is ATGL. The data set is described as follows: Western blot of ATGL level in HepG2 cells. In kind it is cell-based. Also on record: key to Increase in ATGL level: + = slight or in insignificant; ++ = Moderate; +++ and ++++ = active; +++ and ++++ = active; +++++ = very active. The note with it: for Increase in ATGL level: HepG2 cells, score; for Increase in ATGL level / ATGL level in HepG2 cells: western blot; for ATGL level in HepG2 cells: 24 hours, 10 μM screening or 50 nM-5 μM dose dependent. In short, it runs like this: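 HepG2 cells were treated with compound 24 h (10 μM screen; 50 nM–5 μM dose series) and lysed. 30 μg protein was western blotted for ATGL, with actin as loading reference. ATGL increase was expressed as percent of the 1.6-fold siCOP1 maximum and plotted against log concentration for EC50.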

Data set [2] can be described thus: Metabolic stability using Human Liver Microsomes. Format: in vitro ADME. The conditions noted are these: for % QH (Well stirred model): NADPH, 0-60 min. How it is done:
1 mM stock solution of test compound was prepared in DMSO and diluted with Acetonitrile:Water (1:1) to get a 100 μM working concentration. 100 mL of Milli Q water was added to K2HPO4 (1.398 g) and KH2PO4 (0.27 g) to get final pH 7.4 solution of potassium phosphate buffer. […] The above mixture was pre incubated for 15 minutes at 37° C. After pre incubation, 32.5 μL of the mixture was added to 17.5 μL of buffer, this was incubated for 60 minutes at 37° C. [60 min Without Cofactor (NADPH)]. 16.25 μL of the pre incubated mixture and 8.75 μL of cofactor was added to 150 μL of acetonitrile containing internal standard [0 min Sample]. 62 μL of cofactor was added to remaining pre incubation mixture [Incubation mixture]. 25 μL of incubation mixture at 0, 5, 15, 30, 60 min and 60 min without cofactor were precipitated with 150 μL of acetonitrile containing internal standard, vortexed and centrifuged at 4000 rpm at 4° C. for 20 minutes. 120 μL of supernatant was diluted with 120 μL of water and analyzed by LC-MS/MS [sample preparation].

`COCCn1c(C2CCCCC2)nc2ccc(NC(=O)Nc3cccc(C(C)=O)c3)cc2c1=O` [Compound 123, 1-(3-acetylphenyl)-3-(2-cyclohexyl-3-(2-methoxyethyl)-4-oxo-3,4-dihydroquinazolin-6-yl)urea]: in the data set “Plasma stability assay”, the “Mean % remaining at 2 hrs in human Plasma” value (shortened to “Mean % remaining at 2 hrs”) is given as 48.5% and the “Plasma stability” value is reported as “good plasma stability”. Moreover, in data set [1], the logD was 0.84 and the “Lipophilicity class from Log D” value is recorded as “hydrophilic”. Also, in the data set on HepG2 cells, the “Reduction in Lipid Droplets” value is on record as “+++”. Besides, in the data set on ATGL, the “Increase in ATGL level” value is “++++” and the “ATGL level in HepG2 cells” value was “increased ATGL level”.
Consider `CC(=O)c1cccc(NC(=O)Nc2ccc3ncn(CCN(C)C)c(=O)c3c2)c1` [Compound 143, 1-(3-acetylphenyl)-3-(3-(2-(dimethylamino)ethyl)-4-oxo-3,4-dihydroquinazolin-6-yl)urea], for which, in the data set on HepG2 cells, the “Number of lipid droplets” value is reported as “reduction in lipid droplets” and the “Reduction in Lipid Droplets” value was “+++”. Also, in the data set with ATGL, the “Increase in ATGL level” value is recorded as “++++” and the “ATGL level in HepG2 cells” value is “some sort of increase in ATGL level”.
Consider `CC(=O)c1cccc(NC(=O)Nc2ccc3ncn(CCN4CCCCC4)c(=O)c3c2)c1` [Compound 147, 1-(3-acetylphenyl)-3-(4-oxo-3-(2-(piperidin-1-yl)ethyl)-3,4-dihydroquinazolin-6-yl)urea], for which, in the data set with HepG2 cells, the “Number of lipid droplets” value was “reduction in lipid droplets” and the “Reduction in Lipid Droplets” value is given as “++”. In addition, in the data set with ATGL, the “Increase in ATGL level” value was “+++” and the “ATGL level in HepG2 cells” value was “some sort of increase in ATGL level”.
In the case of `CC(=O)c1cccc(NC(=O)Nc2ccc3ncn(-c4cccnc4)c(=O)c3c2)c1` [Compound 155, 1-(3-acetylphenyl)-3-(4-oxo-3-(pyridin-3-yl)-3,4-dihydroquinazolin-6-yl)urea], in the data set with HepG2 cells, the “Number of lipid droplets” value is “reduction in lipid droplets” and the “Reduction in Lipid Droplets” value is recorded as “+++”. Also, in the data set on ATGL, the “Increase in ATGL level” value is recorded as “++” and the “ATGL level in HepG2 cells” value is reported as “some sort of increase in ATGL level”.
`CC(=O)c1cccc(NC(=O)Nc2ccc3ncn(-c4ccccn4)c(=O)c3c2)c1` [Compound 159, 1-(3-acetylphenyl)-3-(4-oxo-3-(pyridin-2-yl)-3,4-dihydroquinazolin-6-yl)urea]: the “Number of lipid droplets” value with HepG2 cells was “reduction in lipid droplets”. For the same compound, in the data set with ATGL, the “Increase in ATGL level” value was “+” and the “ATGL level in HepG2 cells” value is on record as “some sort of increase in ATGL level”.
On to `CC(=O)c1cccc(NC(=O)Nc2ccc3ncn(C4CCN(C)CC4)c(=O)c3c2)c1` [Compound 163, 1-(3-acetylphenyl)-3-(3-(1-methylpiperidin-4-yl)-4-oxo-3,4-dihydroquinazolin-6-yl)urea], for which, in the data set on HepG2 cells, the “Number of lipid droplets” value is “reduction in lipid droplets” and the “Reduction in Lipid Droplets” value is given as “++”. In the data set with ATGL, the “Increase in ATGL level” value is “+” and the “ATGL level in HepG2 cells” value is on record as “some sort of increase in ATGL level”.
Take `CCCCn1cnc2ccc(NC(=O)Nc3cccc(C(C)=O)c3)cc2c1=O` [Compound 175, 1-(3-acetylphenyl)-3-(3-butyl-4-oxo-3,4-dihydroquinazolin-6-yl)urea]: in the data set on HepG2 cells, the “Number of lipid droplets” value is given as “reduced lipid droplets” and the “Reduction in Lipid Droplets” value was “+”. In the data set on ATGL, the “Increase in ATGL level” value is given as “+” and the “ATGL level in HepG2 cells” value is recorded as “did not increase ATGL level”.
`COCCn1cnc2cc(NC(=O)Nc3cccc(C(C)=O)c3)ccc2c1=O` [Compound 192, 1-(3-acetylphenyl)-3-(3-(2-methoxyethyl)-4-oxo-3,4-dihydroquinazolin-7-yl)urea]: the “Reduction in Lipid Droplets” value with HepG2 cells is listed as “++”. For the same compound, the “Increase in ATGL level” value in the data set on ATGL is on record as “+++”.
For `COCCn1cnc2cc(NC(=O)Nc3ccc(C(C)=O)cc3)ccc2c1=O` [Compound 193, 1-(4-acetylphenyl)-3-(3-(2-methoxyethyl)-4-oxo-3,4-dihydroquinazolin-7-yl)urea], in that order: “+” and “+”.
On to `COCCn1c(-c2ccccn2)nc2ccc(NC(=O)Nc3cccc(C(C)=O)c3)cc2c1=O` [Compound 211, 1-(3-acetylphenyl)-3-(3-(2-methoxyethyl)-4-oxo-2-(pyridin-2-yl)-3,4-dihydroquinazolin-6-yl)urea], for which, in the data set “Plasma stability assay”, the “Mean % remaining at 2 hrs” value is reported as 110.3% and the “Plasma stability” value is “good plasma stability”. In data set [2], the “Clearance class from % QH” value was “medium clearance” and the “% QH (Well stirred model)” value is recorded as 38.8%. Also, in data set [1], the logD came out at 2.48 and the “Lipophilicity class from Log D” value was “ideal lipophilicity”. For the same compound, the EC50 with ATGL (fold increase of ATGL by densitometry, as % of 1.6 fold maximum with siCOP1, doses 10-5000 nM, read-out: EC50 (in-vitro)) turned out to be 199 nM. Besides, in the data set on ATGL, the “ATGL level in HepG2 cells” value is listed as “increased ATGL level”.
On to `COCCn1c(C(=O)N2CCCCC2)nc2ccc(NC(=O)Nc3cccc(C(C)=O)c3)cc2c1=O` [Compound 330a, 1-(3-acetylphenyl)-3-(3-(2-methoxyethyl)-4-oxo-2-(piperidine-1-carbonyl)-3,4-dihydroquinazolin-6-yl)urea], for which, in “Plasma stability assay”, the “Mean % remaining at 2 hrs” value is 45.8% and the “Plasma stability” value is “good plasma stability”. Also, in data set [2], the “Clearance class from % QH” value is given as “lower clearance” and the “% QH (Well stirred model)” value was determined as 26.0%. Also, in data set [1], the logD worked out at 1.79 and the “Lipophilicity class from Log D” value is “ideal lipophilicity”.
As for `COCCc1ccc(OCC(O)CNC(C)C)cc1` (stereo not drawn) [Metroprolol, reference compound], the “LogD @ pH 7.4” value in data set [1] is −0.09.
Take `CC(C)[N+](C)(CCOC(=O)C1c2ccccc2Oc2ccccc21)C(C)C` [Propantheline, reference compound]: the “Mean % remaining at 2 hrs” value in the data set “Plasma stability assay” was 1.7%.
Regarding `O=c1c(O)c(-c2ccc(O)c(O)c2)oc2cc(O)cc(O)c12` [Quercetin, reference compound], the “LogD @ pH 7.4” value in data set [1] worked out at 2.81.
